Consider one compound from patent US12281329B2, “Compositions and methods for immune cell modulation in adoptive immunotherapies” (Fate Therapeutics, Inc., priority 2016, dated 2025).

Molecules are shown by their SMILES.

This experiment relates to HER2+ SKOV3 cells. Description: NK cell killing and Herceptin ADCC of SKOV3 cells. The format is cell-based, human. As for the experimental part:
NK Cell Cytotoxicity Assay: Cytotoxicity was determined using a flow cytometry based method based on a previously published method (Kim, et al. J Immunol Methods. 2007 Aug. 31; 325(1-2): 51-66). NK cells were co-cultured with e450-proliferation dye-labelled targets for 4 hours. CellEvent™ Caspase-3/7 Green Flow Cytometry Assay Kit (Lifer Technologies) was used to assay for cell death among target cells, and samples were read on a BD LSRFortessa cytometer. Killing of SKOV-3 targets was quantified using the Incucyte Zoom instrument. SKOV-3 cells were transiently transduced with NucLight-Red BacMam reagent (Essen Biosciences) and co-cultured with the indicated NK cell populations for 74 hours, with images taken on two hour intervals. Caspase 3/7 activity was monitored to indicate target cells undergoing apoptosis using the CellEvent™ Caspase-3/7 Green Detection Reagent. The number of target cells was normalized to SKOV-3 cells cultured alone, and targets undergoing apoptosis were quantified based on caspase 3/7 activity.
In a similar fashion, SKOV3 cells were treated with NK cells derived from overnight culture with IL15, 7 day culture with IL15 and 7 day culture with IL15 and GSK3i. […]

On to `Cc1c[nH]c(-c2cnc(NCCNc3ccc(C#N)cn3)nc2-c2ccc(Cl)cc2Cl)n1` [CHIR99021], for which the “killing of SKOV3 cells (killing rate and killing efficiency; elimination, caspase 3/7 peak)” value (7 day IL15 + GSK3i vs overnight IL15 and 7 day IL15) is “most effective”. Besides, the “ADCC killing of SKOV3 with HER2 antibody (Herceptin)” value (NK cells 7 days IL15 + GSK3i vs overnight IL15 and 7 day IL15) was “enhanced”.
